Experimental findings from US20070275953A1 (priority 2003, published 2007) are described below.

Like-named read-outs stand apart in the source and are kept apart here.

Holding throughout (assay type): cell-based
Test [1] relates to HIV-1 mutant Asn103/Ile108RT in P4 cells. The test can be described thus: Anti-HIV assay on P4 cells, Asn103/Ile108RT double mutant. The text has this:
(§1) In order to introduce mutation(s) at the level of the pol gene coding for the RT in the pNL4-3 plasmid containing the complete viral genome (Adachi et al., 1986. J. Virol., Vol. 59 p 284-291) we used the “Quick change mutagenesis kit” (Stratagene). The following mutations were separately introduced in pNL4-3: L100I, K103N, V108I, Y181C, Y188C, and the double mutations K103N/V108I. These mutations were chosen because of the resistance that they confer to existing NNRTI. The production procedure of the mutant viral stocks is identical to the one described above.
Anti-HIV activity and cytotoxicity of the compounds were tested on a P4 cell line. The P4 cell line (Clavel & Charneau, 1994. J. Virol., Vol. 68 p 1179-1185) was provided by Dr. François Clavel (Unité de recherche antivirale de l'hôpital Xavier Bichat Paris: Inserm). The P4 cells were cultured in complete DMEM medium supplemented with 10% fetal bovine serum (FBS), 0.5% of Penicillin/Streptomycin and G418 at 0.5 mg/ml. Exponentially growing cells were trypsinized, centrifuged and split twice weekly at 5.10^4 cells/ml.
The P4 cells are HIV-infectible Hela-CD4 cells that carry the bacterial lacZ gene under the control of the HIV-1 long terminal repeat (LTR). In this cell line, transcription of the LacZ gene is driven by the HIV-1 LTR. As such, the cytoplasmic accumulation of β-galactosidase is strictly dependent on the presence of the HIV transactivator Tat produced during the intracellular viral replication (Clavel & Charneau, 1994. J. Virol., Vol. 68, p. 1179-1185). In other words, in this system, the expression level of the β-galactosidase gene is proportional to the viral replication.
Briefly, in the anti-HIV assay 100 Ål of P4 cells were plated in 96-well plate at a concentration of 0.4 10^5 cells/ml and incubated at 37° C., 5% CO2. After 48 h, the medium was removed and 100 Ål of the different drugs dilutions were added to the cells. Four hours after the addition of the drugs all cells were infected with equal amount of cell-free virus, corresponding to 100 ng of HIV p24 antigen. After 48 h of incubation at 37° C., 5% CO2, β-galactosidase activity was measured using chlorophenol red-β-D-galactopyranoside assays.
The absorbance was measured on a Benchmark™ Microplate Reader (Biorad) (λ=570 nm) and compared with 12 cell control replicates (no virus or drug added) and 12 virus control wells (no drug added). Each assay was performed a minimum of three times. The 50% effective concentration (Ec50) was calculated from each dose response curve using the CurveExpert 1.3 software. As Nevirapine activity corresponds to its published values (10-100 nM), the data are consistent with other measures of viral replication.

Test [2] concerns HIV-1 mutant Asn103/Ile108RT in MT4 cells. The test can be described thus: Anti-HIV assay on MT4 cells, Asn103/Ile108RT double mutant.
From the text: as §1
(§2) Anti-HIV activity of the compounds was tested on MT-4 cell line. The MT-4 cell line (Larder et al. 1989. Sciences, Vol. 243 p 1731) was received from the NIH AIDS Research and Reference Reagent Program. These cells were cultured in RPMI medium supplemented with 10% fetal bovine serum (FBS), and 1% Penicillin/Streptomycin. The cultures were split regularly to keep cells densities between 0.3 to 1.2 10^6 cells/ml.
(§3) The MT-4 cells rapidly die upon infection by HIV. In this system there is an inverse correlation between cells survival and the amount of viral replication.
(§4) Briefly, in the anti-HIV assay exponentially growing MT-4 cells were infected with HIV-1. 100 μl of infected MT-4 cells were seeded in 96-well plate at a concentration of 0.4 10^5 cells/ml, and 100 μl of the different drugs dilutions were added to the cells. After 4 days of incubation at 37° C., 5% CO2, cells survival was measured using MTS (3-(4-5-dimethylthiazol-2-yl)-5-(−(3-carboxymethoxyphenyl)-2-(4-sulfophenyl)-2H-tetrazolium) assays. This compound is reduced by viable cells in a colored soluble formazan salt.
(§5) The absorbance was measured on a Benchmark™ Microplate Reader (Biorad) (λ=490 nm) and compared with 12 cell control replicates (nor virus nor drug added) and 12 virus control wells (no drug added). Each assay was performed a minimum of three times. The 50% effective concentration (EC50) was calculated from each dose response curve using the CurveExpert 1.3 software.

Test [3] concerns HIV-1 mutant Cys188RT in MT4 cells. Nature of the test: Anti-HIV assay on MT4 cells, Cys188RT mutant.
From the text: as §1, §2, §3, §4, §5

In test [4] the test system is HIV-1 with WT (wild type) RT in MT4 cells. The test can be described thus: Anti-HIV assay on MT4 cell line, WT RT. Here is the method:
Wurzburg Jurkat T cells (subclone JR) were transfected with 10 μg of the circularly permuted infectious molecular clone HIVNL4-3 (Adachi et al., 1986. J. Virol, 59 (2), p 284-291). Two days later, co-cultivation with SupT1 cells (a human T-cell lymphoma cell line) was initiated to facilitate rapid production of progeny virions. Production of virus was measured by using the Innotest HIV Antigen mAb p24 kit (Innogenetics). At the peak of production cultures were harvested and filtered. The virus stocks were stored at −80° C. until used.
as §2, §3, §4, §5

In test [5] the test system is HIV-1 mutant Asn103RT in MT4 cells. Nature of the test: Anti-HIV assay on MT4 cells, Asn103RT mutant.
From the text: as §1, §2, §3, §4, §5

For test [6], the system named is HIV-1 mutant Ile108RT in MT4 cells. Nature of the test: Anti-HIV assay on MT4 cells, Ile108RT mutant.
From the text: as §1, §2, §3, §4, §5

Setting [7] is: Human immunodeficiency virus 1, read-out: EC50 Asn103/Ile108RT F4.
[8] abbreviates: Human immunodeficiency virus 1, MT4, read-out: EC50 Asn103/Ile108RT MT4.
Setting [9] is: Human immunodeficiency virus 1, MT4, read-out: EC50 Cys188RT MT4.
The mark [10] stands for this setting: Human immunodeficiency virus 1, MT4, read-out: EC50 Asn103RT MT4.
Where [11] appears, read: Human immunodeficiency virus 1, MT4, read-out: EC50 Ile108RT MT4.
The mark [12] stands for this setting: MT4, double mutant Asn103/Ile108RT.
The mark [13] stands for this setting: column head prints F4, double mutant Asn103/Ile108RT, read-out: EC50 Asn103/Ile108RT F4.
The mark [14] stands for this setting: MT4, mutant Cys188RT, read-out: EC50 Cys188RT MT4.
The mark [15] stands for this setting: MT4, mutant Ile108RT, read-out: EC50 Ile108RT MT4.

As to `O=C1Nc2ccc(Cl)cc2[C@@](C#CC2CC2)(C(F)(F)F)O1` [Efavirenz, reference compound], the EC50 in test [1] (setting [7]) was 9 nM; in test [2] (setting [8]), 1190 nM; in test [3] (setting [9]), 1 nM; in test [4] (Human immunodeficiency virus 1), less than 1 nM; in test [5] (setting [10]) it was 5 nM; in test [6] (setting [11]), less than 1 nM.

For the compound `Cc1ccnc2c1NC(=O)c1cccnc1N2C1CC1` [Nevirapine, reference compound], the EC50 in test [1] (setting [7]) is 6250 nM; in test [3] (setting [9]), greater than 5000 nM; in test [4] (Human immunodeficiency virus 1) it was 575 nM; in test [5] (setting [10]) it was greater than 25000 nM; in test [6] (setting [11]), 1270 nM. Also, the “EC50 Asn103/Ile108RT MT4” value in test [2] (setting [12]) is “inactive”.

As to `CCc1c(C)[nH]c(=O)c(CO)c1OC1CC(C)CC(C)C1` (centres unmarked) [Z45inv], in test [1] (setting [13]), the EC50 was determined as 19200 nM.

On to `CCc1c(C)[nH]c(=O)c([N+](=O)[O-])c1OC1CC(C)CC(C)C1` (centres unmarked) [Z91inv, 3-nitro-5-ethyl-6-methyl-4-[(3,5-dimethylcyclohexyl)oxy]pyridine-2(1H)-one], for which the EC50 is 180 nM in test [1] (setting [7]); 9900 nM in test [2] (setting [8]); 43 nM in test [3] (setting [9]); less than 1 nM in test [4] (Human immunodeficiency virus 1); 980 nM in test [5] (setting [10]); 72 nM in test [6] (setting [11]).

With `CCc1c(C)[nH]c(=O)c(CSC(C)=O)c1OC1CC(C)CC(C)C1` (centres unmarked) [Z114], the EC50 in test [1] (setting [13]) amounted to 1930 nM; in test [3] (setting [14]) it was 1680 nM; in test [4] it was 136 nM; in test [6] (setting [15]) it was 12000 nM. For the same compound, the “EC50 Asn103/Ile108RT MT4” value in test [2] (setting [12]) was “inactive”. In addition, the “EC50 Asn103RT MT4” value in test [5] (MT4, mutant Asn103RT) is “inactive”.

For the compound `CCc1c(C)[nH]c(=O)c(N(C)C)c1OC1CC(C)CC(C)C1` (centres unmarked) [Z150, 3-(dimethylamino)-5-ethyl-6-methyl-4-[(3,5-dimethylcyclohexyl)oxy]pyridine-2(1H)-one], the EC50 in test [1] (setting [7]) is 27 nM; in test [2] (setting [8]), 958 nM; in test [3] (setting [9]), 6 nM; in test [4] (Human immunodeficiency virus 1), less than 1 nM; in test [5] (setting [10]) it was less than 1 nM; in test [6] (setting [11]), less than 1 nM.

`CCc1c(C)[nH]c(=O)c(CN=[N+]=[N-])c1OC1CC(C)CC(C)C1` (centres unmarked) [Z153]: the EC50 amounted to 70 nM in test [1] (setting [13]); 3480 nM in test [2] (MT4, double mutant Asn103/Ile108RT, read-out: EC50 Asn103/Ile108RT MT4); 33 nM in test [3] (setting [14]); 150 nM in test [5] (MT4, mutant Asn103RT, read-out: EC50 Asn103RT MT4); 8 nM in test [6] (setting [15]).

Take `CCc1c(C)[nH]c(=O)c(C)c1OC1CC(C)CC(C)C1` (centres unmarked) [Z154]: the EC50 in test [1] (setting [13]) was 88 nM; in test [4] it was less than 1 nM.
